Laboratory results published in patent US9290427B2, “Anti-invasive compounds” (Universiteit Gent, priority 2012, dated 2016).

Legend:
MCF-7/6 cells = test: Sulforhodamine B (SRB) test, MCF-7/6; format: cell-based, human
Experimental: (§1) The SRB assay is used to evaluate growth effects on cells, and measures the total protein content. In this test, 5,000 cells are seeded in a cup of a 96-well plate. Upon a 24 h-attachment period, cells are treated with a certain amount of the test molecule (dissolved in DMSO). After a pre-chosen incubation time, cells are fixed with 50 μL of 50% trichloroacetic acid (2° C., 1 h). Afterward, the plate is rinsed five times with tap water, and air dried overnight.
(§2) Next, proteins are stained with 75 μL of a 0.4% solution of SRB in AcOH (30 min). Unbound SRB is subsequently removed by washing with a 1% solution of glacial AcOH, whereupon the plate is air dried. Then, bound SRB is redissolved in 100 μL of a 10 mmol·L^−1 tris(hydroxymethyl)aminomethane (Tris) buffer (pH=10.5), after which optical density is determined at 490 nm with a spectrophotometer.
Besides, also an SRB assay was performed. This test is based on the ability of the dye sulforhodamine B (SRB) to bind electrostatically on basic amino acid residues of protein in trichloroacetic acid-fixed cells. Results obtained in the SRB assay are linearly proportional to the amount of cellular protein and thus to the cell number.

MCF-7/LucF5 cells = test: SRB test, MCF-7/LucF5; format: cell-based, human
Experimental: as §1, §2
In order to further validate the use of the MCF-7/LucF5 cells in our in vivo experiments, the effects of 4-fluoro-3′,4′,5′-trimethoxychalcone on this cell line in the MTT and SRB assays were determined as well (Van Hoorde L. et al., 1999).

BLM melanoma cells = test: SRB test, BLM; format: cell-based
Experimental: as §1, §2
As 4-fluoro-3′,4′,5′-trimethoxychalcone had exerted an anti-invasive activity on BLM melanoma cells in the Matrigel invasion assay, we were intrigued to verify how its effect on the viability of BLM cells would compare to that observed for the MCF-7 cell lines.

[1] = test system: HCT8-E11 colon carcinoma cells; test: MTT test, HCT8-E11; format: cell-based, human
Experimental: (§3) An MTT test provides an indication of cell viability, proliferation and activity through determination of the mitochondrial conversion of 3-(4,5-dimethylthiazol-2-yl)-2,5-diphenyltetrazolium bromide (MTT), a yellow salt, into formazan, a salt that precipitates under the form of blue crystals.
(§4) In concreto, 5,000 cells are seeded in a cup of a 96 well-plate, treated with the desired amount of the test substance, and incubated for a chosen period of time. Next, 40 μL of a filtered (0.2 μm) 5 mg·mL^−1 solution of MTT in PBS is added to the cup. After 2 h of incubation at 37° C. in the dark, all liquid is removed. The obtained formazan salts are dissolved in 200 μL of DMSO, whereupon optical density is measured at 490 nm.
(§5) In order to verify whether the antiproliferative effects of compound 49, witnessed in BLM and MCF-7/6 cells at high concentrations, were cell specific, additional SRB and MTT assays on a further five cell lines (HCT8-E11, TR146, FaDu, 3T3-L1 and CT5.3) were conducted (FIG. 8). The results for MCF-7/6 cells were added to facilitate comparison.
(§6) The CT5.3 cell line consists of human myofibroblasts which were isolated from a colon tumor (Van Hoorde et al., 1999). 3T3-L1 cells are murine fibroblasts, originating from embryo's of Swiss mice (Todaro and Green, 1963). HCT8-E11, FaDu and TR146 are human epithelial cancer cell lines. […]

[2] = test system: HCT8-E11 colon carcinoma cells; test: SRB test, HCT8-E11; format: cell-based, human
Experimental: as §1, §2, §5
(§7) The CT5.3 cell line consists of human myofibroblasts which were isolated from a colon tumor (Van Hoorde et al., 1999). […]

TR146 cells = test: MTT test, TR146; format: cell-based, human
Experimental: as §3, §4, §5, §6

FaDu cells [3] = test: MTT test, FaDu; format: cell-based, human
Experimental: as §3, §4, §5, §6

FaDu cells [4] = test: SRB test, FaDu; format: cell-based, human; settings: 1 or 10 μmol·L−1, 24 h
Experimental: as §1, §2, §5, §7

[5] = 10 μmol·L−1, 24 h, decreasing trend, not significant
[6] = elevated concentrations 10-100 μmol·L−1, summary

In the case of `COc1cc(C(=O)/C=C/c2ccc(F)cc2)cc(OC)c1OC` [Compound 49, (2E)-3-(4-Fluorophenyl)-1-(3,4,5-trimethoxyphenyl)propenone], the number of cells (MCF-7/6 cells; 1 μmol·L−1, FIG. 6) was “smaller but still significant reduction”, the “change in total protein content” value (MCF-7/6 cells; [5]) was −10% and the “total protein content relative to solvent control” value (MCF-7/6 cells; 100 and 10 μmol·L−1, FIG. 6 (72 and 144 h), p<0.01) was “significant reduction”. For the same compound, the “reduction in total protein content” value (MCF-7/6 cells; [6]) was roughly 50%, the cell count (MCF-7/LucF5 cells; 1 and 0.1 μmol·L−1, 72 h (p=0.0703 and 0.0538)) was “marginally significant reduction” and the total protein content (MCF-7/LucF5 cells; 100 or 10 μmol·L−1, 72 h (p=0)) was “significant reduction”. The “reduction in total protein content” value (MCF-7/LucF5 cells; [6]) was roughly 50%, the “reduction in total protein content” value (BLM melanoma cells; 0.1 μmol·L−1, 24 h) was “no effect was apparent” and the “change in total protein content” value (BLM melanoma cells; 10 μmol·L−1, 24 h, significant reduction) was −20%. For the same compound, the “reduction in total protein content” value (BLM melanoma cells; 1 and 10 μmol·L−1, 24 h (p<0.01)) was 20%, the “reduction in mitochondrial activity” value ([1]; 10 μmol·L−1, 24 h) was 40% and the “reduction in mitochondrial activity” value [1, 6] was roughly 50%. For the same compound, the “change in total protein content” value [2, 5] was −27%, the “reduction in total protein content” value [2, 6] was roughly 50% and the “increase in mitochondrial activity” value (TR146 cells; 1 μmol·L−1, 24 h) was 7%. The “reduction in mitochondrial activity” value (TR146 cells; 10 μmol·L−1, 24 h) was 30%, the mitochondrial activity (FaDu cells [3]; 1 μmol·L−1, 24 h) was “the same trend, but without significance” and the “reduction in mitochondrial activity” value (FaDu cells [3]; 10 μmol·L−1, 24 h) was 30%. For the same compound, the “total protein content versus solvent control” value (FaDu cells [4]) was “no significant differences”.
